Source: the NIST ThermoML archive (doi:10.1016/j.fluid.2019.01.021)
± gives the expanded uncertainty stated by the source.

Conditions: Liquid, Capillary tube (Ostwald / Ubbelohde) method

CCC(C)CC(C)(C)C (stereo unspecified) [2,2,4-trimethylhexane]
293.15 K
Conditions	viscosity [mPa·s]
100 kPa	0.64 ± 0.064
25000 kPa	0.844 ± 0.084
50000 kPa	1.101 ± 0.11
100000 kPa	1.71 ± 0.17
150000 kPa	2.54 ± 0.25
250000 kPa	5.31 ± 0.56
350000 kPa	10.67 ± 1.3
400000 kPa	15 ± 2.1
500000 kPa	30.9 ± 4.8
600000 kPa	62.9 ± 12
700000 kPa	126.9 ± 29
800000 kPa	264 ± 79
900000 kPa	558 ± 220
1000000 kPa	1187

CC(C)CC(C)(C)C [2,2,4-trimethylpentane]
298.15 K
Conditions	viscosity [mPa·s]
100 kPa	0.48 ± 0.047
26000 kPa	0.641 ± 0.061
50000 kPa	0.809 ± 0.076
100000 kPa	1.207 ± 0.11
200000 kPa	2.35 ± 0.23
312000 kPa	4.41 ± 0.47
407000 kPa	7.7 ± 0.89
499000 kPa	12.63 ± 1.6
600000 kPa	21.3 ± 3
700000 kPa	36.4 ± 5.8
800000 kPa	61.5 ± 11
900000 kPa	104.8 ± 22
